Laboratory results taken from paper PMC9964319, “Half-Sandwich Rhodium Complexes with Releasable N-Donor Monodentate Ligands: Solution Chemical Properties and the Possibility for Acidosis Activation” (Pharmaceutics, 2023).
Like-named read-outs stand apart in the source and are kept apart here.

Columns and labels:
[1] = Formation constants of mixed-ligand half-sandwich complexes (UV-vis and 1H NMR); type: physicochemical; details: aqua complex + monodentate ligand; I = 0.10 M (KCl); t = 25.0 °C; UV-vis and 1H NMR
Procedure: NMR spectroscopic studies were carried out on a Bruker Avance III HD Ascend 500 Plus instrument. For the aqueous samples, ^1H NMR spectra were recorded with the WATERGATE water suppression pulse scheme using DSS internal standard. The highest peak of DSS was 0.00 ppm. The measurement was very similar to the UV-vis measurement since the complex–to–monodentate ligand ratio was also between 0–10 equivalents; the spectra were recorded after the given waiting time. […] This technique was useful in those cases where no spectral change was visible during the UV-vis titrations.
In both measurement methods, the formation constant (K) was obtained using the computer program PSEQUAD [38].
It is worthwhile to mention that the liberation of the bidentate ligand was not detected even at higher monodentate ligand excess (~10), which means that the disruption of the bond between the bidentate ligand and the metal center is not feasible under these conditions. The calculated formation constants are compared in Figure 5 and are collected in Table S2. The formation of the mixed-ligand complexes was not detected in three cases under the applied conditions, namely [Ru(p-cym)(en)(mim)]^2+, [Ru(p-cym)(phen)(mim)]^2+, and [Ru(p-cym)(en)(Py)]^2+. For these complexes, only a higher limit of the formation constant could be given, assuming that a maximum of 5% of the complex would form (limit of detection) under the conditions used for ^1H NMR spectroscopy. Based on Figure 5, the following trends are observed in the formation constants: (i) [RhCp*(en)(H2O)]^2+ and [RhCp*(phen)(H2O)]^2+ have a stronger monodentate ligand-binding ability than the Ru(p-cym) analogs; (ii) the formation constants of the [Ru(p-cym)(8HQH-1)(N)]^+ complexes are similar or somewhat higher than those of the RhCp* analogs; (iii) a stability trend for the monodentate ligand: mim > bim > Py (iv) and the bidentate ligand: 8HQH-1 > phen ≥ en can be seen.

[2] = Computed fractions of mixed-ligand complexes as function of pH from formation constants; type: physicochemical; details: 100 μM; ratio 1:1
Procedure: With the help of these formation constants, the extent of complex formation can be estimated for a chosen monodentate ligand—complex chemical system under the desired conditions (concentration and pH). Figure 6 and Figure S25 show the computed fractions of the formed, mixed-ligand complexes between pH = 5 and 8 and at a 100 μM concentration (metal complex-to-monodentate ligand ratio = 1:1). The fraction at pH = 7.4 and at pH 6.0–6.7 were compared to each other.
As an example, the fractions of [Ru(p-cym)(8HQH−1)(mim)]^+ are shown in Figure S26 with decreasing concentration.
Formation constants shown in Figure 5 and in Table S2 were used for the calculation. Percentages indicate the fraction at pH = 7.4 (blue line) and in the range between pH = 6.0–6.7 (pink rectangle: possible pH of tumor microenvironment during acidosis).

[3] = tested on: E. coli 32313 (resistant); test: Antibacterial assay, MIC in 96-well plates at different pH; type: cell-based; details: E. coli resistant, after one day, read-out: MIC
Source text: (§1) The antibacterial effect was studied in two Gram-positive and in two Gram-negative strains. The Gram-positive S. aureus ATCC 25923 (ATCC, Manassas, VA, USA) is a methicillin-susceptible reference bacterial strain, while S. aureus 272123 is a clinical isolate and resistant to methicillin and ofloxacin (MRSA), which was given by Prof. Dr. Leonard Amaral (Institute of Hygiene and Tropical Medicine, Lisbon, Portugal). The Gram-negative strains were E. coli ATCC 25922 (ATCC, Manassas, VA, USA), which is sensitive to antibiotics, and E. coli 32313 (provided by the Institute of Clinical Microbiology, University of Szeged, Hungary), which is resistant to different antibiotics (trimethoprim/sulfamethoxazole, gentamicin, ciprofloxacin, and norfloxacin).
(§2) The minimum inhibitory concentrations (MICs) of the compounds were determined in 96-well plates based on the Clinical and Laboratory Standard Institute guidelines. The compounds were diluted in 100 μL of Mueller Hinton broth. Then, an overnight bacterial culture diluted 10,000 times in 100 μL of medium was added to each well, with the exception of the medium control wells. For each strain and each tested compound, four pH values were set (5, 6, 7, and 8). Each sample was triplicated.

[4] = tested on: E. coli ATCC 25922 (sensitive); test: as above; type: cell-based; details: E. coli sensitive, after one day, read-out: MIC
Source text: as §1, §2

S. aureus 272123 (MRSA) = test: as above; type: cell-based; details: read-out: MIC
Source text: as §1, §2

[5] = tested on: S. aureus ATCC 25923 (methicillin-susceptible); test: as above; type: cell-based; details: S. aureus sensitive, after one day, read-out: MIC
Source text: as §1, §2

[6] = Fractions of mixed-ligand complexes at 1:1 ratio at pH 6.0 and 7.4 by 1H NMR (screening of monodentate ligands); type: physicochemical; details: 1H NMR
Procedure: In the preliminary studies, the co-ordination ability of the monodentate ligands to the [RhCp*(en)(H2O)]^2+, [RhCp*(phen)(H2O)]^2+, and [RhCp*(8HQH-1)(H2O)]^+ complexes was tested (Chart 2). The samples contained the aqua complex and the monodentate ligand in a 1:1 ratio and were buffered at pH = 6.0 and pH = 7.4. For an ideal drug candidate, all of the monodentate ligand would be bound at pH 7.4; thus, the mixed-ligand complex would be present exclusively, which dissociates completely at pH 6.0.
Figure 1 Fractions of the formed mixed-ligand [RhCp*(N,N/O)(N)]^2+/+ complexes at c(complex):c(monodentate ligand) = 1:1 ratio measured at pH = 6.0 (full bars) and 7.4 (checkered bars). Fractions were determined by the integration of the peaks in the ^1H NMR spectra. The percentage values above the columns show the difference in the fractions of the mixed-ligand complex at the two pH values. {c([RhCp*(phen)(H2O)]^2+) = c([RhCp*(en)(H2O)]^2+) = 1 mM; c([RhCp*(8HQH−1)(H2O)]^+) = 500 μM; 10% D2O; pH = 6.0 or 7.4 (PBS’); t = 25.0 °C}. […] The percentages were assigned to (N,N) = en, (N,N) = phen and (N,O) = 8HQH-1 by bar colour only.

physchem = details: water with 0.10 M KCl
Procedure: pH-potentiometric measurements were performed to determine the protonation constants (Kp) of the ligands and the concentration of the stock solutions. These measurements were carried out at 25.0 ± 0.1 °C in water in a pH range between 2.0 and 11.5, titrating with carbonate-free KOH solution (0.10 M). […] A Thermo Scientific 0710A0 benchtop pH meter (Waltham, MA, USA), equipped with a Metrohm combined electrode (type 6.0234.100) and a Metrohm 665 Dosimat burette (Metrohm, Herisau, Switzerland) was used for these measurements. […] The initial volume of the samples was 10.0 mL, and the ligand concentration was 2.0 mM in the samples. Samples were degassed by bubbling purified argon prior to and during the measurements. The computer program Hyperquad2013 [28] was utilized to determine the protonation constants of the ligands and concentration.
The protonation constants (Kp) were determined by pH-potentiometric and UV-vis spectrophotometric titrations in the presence of 0.1 M KCl (see Table 1 and Figures S21 and S22 for examples).

[7] = pH 6, listed as [RhCp*(8HQH-1)Cl] +mim
[8] = pH 7, listed as [RhCp*(8HQH-1)Cl] +mim
[9] = pH 6, listed as [RhCp*(phen)Cl]Cl +mim
[10] = pH 7, listed as [RhCp*(phen)Cl]Cl +mim

SMILES	Formation constant logK of mixed-ligand complex [1]	difference in computed fraction (dissociated) when pH decreases from 7.4 to 6.0 [2] [%]	MIC ([3]; pH 5) [µM]	MIC ([3]; pH 8) [µM]	MIC ([4]; pH 5) [µM]	MIC ([4]; pH 8) [µM]	MIC (S. aureus 272123 (MRSA); pH 5, after one day) [µM]	MIC (S. aureus 272123 (MRSA); pH 8, after one day) [µM]	MIC ([5]; pH 8) [µM]	also measured
Cc1c(C)c(C)[c-](C)c1C.Cn1ccnc1.[O-]c1cccc2cccnc12.[Rh+3] [[RhCp*(8HQH−1)(mim)]^+]	4.7 ± 0.2	13	> 100	> 100	> 100	> 100	50	12.5	12.5	MIC [3, 7]: >100 µM; MIC [3, 8]: >100 µM; MIC [4, 7]: >100 µM; MIC [4, 8]: >100 µM; MIC (S. aureus 272123 (MRSA); pH 6, after one day): 25 µM; MIC (S. aureus 272123 (MRSA); pH 7, after one day): 12.5 µM; MIC ([5]; pH 7): 12.5 µM
Cc1c(C)c(C)[c-](C)c1C.Cn1ccnc1.NCCN.[Rh+3] [[RhCp*(en)(mim)]^2+]	4.2 ± 0.1	–	–	–	–	–	–	–	–	Fraction of mixed-ligand complex ([6]; pH 6.0, PBS'): 52%; Fraction of mixed-ligand complex ([6]; pH 7.4, PBS'): 82%
Cc1c(C)c(C)[c-](C)c1C.Cn1ccnc1.[Rh+3].c1cnc2c(c1)ccc1cccnc12 [[RhCp*(phen)(mim)]^2+]	5.5 ± 0.1	25	> 100	> 100	> 100	> 100	> 100	> 100	> 100	MIC [3, 9]: >100 µM; MIC [3, 10]: >100 µM; MIC [4, 9]: >100 µM; MIC [4, 10]: >100 µM; MIC (S. aureus 272123 (MRSA); pH 6, after one day, listed as [RhCp*(phen)Cl]Cl +mim): >100 µM; MIC (S. aureus 272123 (MRSA); pH 7, after one day, listed as [RhCp*(phen)Cl]Cl +mim): >100 µM; MIC [5, 10]: >100 µM
NCc1ccccc1 [benzylamine]	–	–	–	–	–	–	–	–	–	pKa (physchem): 9.42 ± 0.01
